From PMC3311054 (2012)

Columns and labels:
[1] = target: bovine milk xanthine oxidoreductase (bXOR) (Bos taurus, UniProt P80457); assay: steady-state kinetics, xanthine-NAD+ activity, uric acid absorbance at […] nm; assay type: biochemical
[2] = target: T1, Rhodobacter capsulatus xanthine oxidoreductase (RcXOR) (Rhodobacter capsulatus, UniProt O54051); assay: steady-state kinetics, Lineweaver-Burk plots of xanthine-NAD+ activity; assay type: biochemical
T1 sequence (O54051 1-777): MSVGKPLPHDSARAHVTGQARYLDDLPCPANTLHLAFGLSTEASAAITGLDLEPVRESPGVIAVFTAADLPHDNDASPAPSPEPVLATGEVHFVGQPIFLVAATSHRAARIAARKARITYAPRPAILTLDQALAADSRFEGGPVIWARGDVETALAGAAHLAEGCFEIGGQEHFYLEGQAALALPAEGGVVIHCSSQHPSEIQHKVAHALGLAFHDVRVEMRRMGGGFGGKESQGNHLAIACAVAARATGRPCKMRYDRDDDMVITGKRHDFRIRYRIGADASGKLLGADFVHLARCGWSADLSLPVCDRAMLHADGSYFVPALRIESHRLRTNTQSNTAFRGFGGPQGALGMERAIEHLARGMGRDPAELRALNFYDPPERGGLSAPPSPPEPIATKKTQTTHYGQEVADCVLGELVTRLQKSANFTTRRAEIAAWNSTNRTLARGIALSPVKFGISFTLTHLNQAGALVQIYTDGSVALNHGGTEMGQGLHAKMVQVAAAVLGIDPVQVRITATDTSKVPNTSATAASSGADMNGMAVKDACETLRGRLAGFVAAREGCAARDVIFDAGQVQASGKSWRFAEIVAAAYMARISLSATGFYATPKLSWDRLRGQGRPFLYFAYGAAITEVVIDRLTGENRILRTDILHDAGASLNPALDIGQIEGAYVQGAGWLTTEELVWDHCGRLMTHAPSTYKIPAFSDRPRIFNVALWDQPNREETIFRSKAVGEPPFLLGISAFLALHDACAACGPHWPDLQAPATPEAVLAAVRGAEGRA
T1 sequence (O54050 1-462 partner): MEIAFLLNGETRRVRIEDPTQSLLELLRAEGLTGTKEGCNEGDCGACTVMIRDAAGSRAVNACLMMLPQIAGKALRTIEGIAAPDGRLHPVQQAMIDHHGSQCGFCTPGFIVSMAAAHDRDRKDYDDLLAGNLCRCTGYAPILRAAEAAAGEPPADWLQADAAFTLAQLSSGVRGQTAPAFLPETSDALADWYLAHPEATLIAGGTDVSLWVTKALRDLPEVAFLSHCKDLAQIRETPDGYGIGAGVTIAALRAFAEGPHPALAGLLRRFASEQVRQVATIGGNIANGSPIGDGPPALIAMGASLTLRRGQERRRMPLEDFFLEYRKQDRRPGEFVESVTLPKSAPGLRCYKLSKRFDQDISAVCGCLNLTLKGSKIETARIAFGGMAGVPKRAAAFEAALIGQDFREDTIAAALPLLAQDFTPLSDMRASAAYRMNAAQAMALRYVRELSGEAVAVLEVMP

Sequence of bovine milk xanthine oxidoreductase (bXOR) (P80457 2-1332): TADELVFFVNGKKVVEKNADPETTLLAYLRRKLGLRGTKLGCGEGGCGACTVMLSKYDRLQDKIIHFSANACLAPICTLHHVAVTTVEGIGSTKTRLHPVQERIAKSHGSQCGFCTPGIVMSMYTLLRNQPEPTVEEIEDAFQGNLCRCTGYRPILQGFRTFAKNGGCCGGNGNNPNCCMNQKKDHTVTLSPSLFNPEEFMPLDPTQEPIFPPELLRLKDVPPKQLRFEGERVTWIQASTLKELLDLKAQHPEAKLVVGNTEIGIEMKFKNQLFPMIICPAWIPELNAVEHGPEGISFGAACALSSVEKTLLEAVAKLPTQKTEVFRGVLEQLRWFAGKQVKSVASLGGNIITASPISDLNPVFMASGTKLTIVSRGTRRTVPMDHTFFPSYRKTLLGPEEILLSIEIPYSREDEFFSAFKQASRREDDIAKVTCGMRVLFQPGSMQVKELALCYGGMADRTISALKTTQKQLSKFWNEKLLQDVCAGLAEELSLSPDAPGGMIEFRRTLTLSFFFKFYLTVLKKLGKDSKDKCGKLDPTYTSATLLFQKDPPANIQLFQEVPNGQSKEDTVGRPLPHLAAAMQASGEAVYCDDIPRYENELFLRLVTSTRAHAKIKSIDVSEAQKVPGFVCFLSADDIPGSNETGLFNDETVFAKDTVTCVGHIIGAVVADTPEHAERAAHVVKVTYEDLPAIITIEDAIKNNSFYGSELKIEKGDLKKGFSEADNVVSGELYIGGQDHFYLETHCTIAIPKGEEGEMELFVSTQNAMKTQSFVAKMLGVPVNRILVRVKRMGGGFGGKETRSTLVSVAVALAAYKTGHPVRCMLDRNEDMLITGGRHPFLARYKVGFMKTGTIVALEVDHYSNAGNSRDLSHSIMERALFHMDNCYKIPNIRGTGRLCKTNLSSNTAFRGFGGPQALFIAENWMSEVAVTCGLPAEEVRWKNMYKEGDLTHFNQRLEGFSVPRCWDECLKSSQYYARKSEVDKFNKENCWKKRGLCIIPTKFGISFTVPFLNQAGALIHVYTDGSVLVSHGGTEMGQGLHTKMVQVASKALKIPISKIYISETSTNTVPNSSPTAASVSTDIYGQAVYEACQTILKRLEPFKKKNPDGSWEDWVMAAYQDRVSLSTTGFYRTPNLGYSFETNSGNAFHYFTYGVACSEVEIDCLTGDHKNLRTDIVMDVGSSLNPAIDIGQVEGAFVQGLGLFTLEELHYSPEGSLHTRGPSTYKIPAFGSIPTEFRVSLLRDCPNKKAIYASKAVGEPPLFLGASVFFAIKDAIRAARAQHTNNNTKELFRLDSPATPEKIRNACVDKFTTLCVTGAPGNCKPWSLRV

- steady-state kinetics, xanthine-NAD+ activity, uric acid absorbance at 295 nm [1]: < 100 nM
- Ki [2]: 17.5 µM
SMILES: Cc1nc(-c2ccc(OCC(C)C)c(C#N)c2)sc1C(=O)O [febuxostat]
